# According to patent US20240058321A1, “FARNESYL-TRANSFERASE INHIBITORS AND KRAS INHIBITORS FOR TREATING KRAS MUTANT CANCERS” (SEMMELWEIS EGYETEM, priority 2021, published 2024):
# pIC50: −log10 of the molar value. Like-named read-outs stand apart in the source and are kept apart here.
# Legend:
# H358 = test: 2D combinational test (SRB growth inhibition, six days)
# Method: (§3) H358, SW1573, H1792, MIAPACA2, SW1990, SNUC2B, SW480, A549 and HCT116 were purchased from ATCC, while SW48 KRAS G12C colorectal cell line and H838 KRAS G12D lung cell line was bought from Horizon Discovery Ltd. Most of the cell lines were heterozygous for mutant KRAS, as in human cases used to occur, but we also used cell lines with homozygous mutant KRAS.
# (§4) Cells were cultured in DMEM (Lonza, Switzerland; with 4500 mg/dm3 glucose, pyruvate and L-glutamine) supplemented with 10% fetal calf serum (EuroClone) and 1% penicillin-streptomycin-amphotericin (Lonza) in tissue culture flasks in a humidified 5% CO2 atmosphere at 37° C.
# (§5) For in vitro experiments drugs were dissolved in DMSO in 10 mM stock concentration and stored at −80° C.
# Cells that reached 70-80% confluency were trypsinized and counted using Luna II Automated Cell Counter. Cells were plated in 5000-10000 cells/well density (depending on the growth rate of the given cell line) on a 24 well plate. Next day the medium was replaced to fresh medium supplemented with the inhibitors. After 6 days, the wells were washed with DPBS (Lonza) and the cells were fixed by 10% trichloroacetic acid and stained with Sulphorodamine-B (SRB) (Sigma) dye for 15 minutes. […] Protein-bound SRB was then dissolved in 10 mM Tris buffer (pH=7,4) and OD was measured at 570 nm using a microplate reader (EL800, BioTec Instruments, Winooski, VT). […]
# SW1573 [1] = test: as above; details: SW1573
# Method: as §3, §4, §5
# Cells that reached 70-80% confluency were trypsinized and counted using Luna II Automated Cell Counter. Cells were plated in 5000-10000 cells/well density (depending on the growth rate of the given cell line) on a 24 well plate. Next day the medium was replaced to fresh medium supplemented with the inhibitors. After 6 days, the wells were washed with DPBS (Lonza) and the cells were fixed by 10% trichloroacetic acid and stained with Sulphorodamine-B (SRB) (Sigma) dye for 15 minutes. Plates then were repeatedly washed with 1% acetic acid to remove excess dye. Protein-bound SRB was then dissolved in 10 mM Tris buffer (pH=7,4) and OD was measured at 570 nm using a microplate reader (EL800, BioTec Instruments, Winooski, VT). OD values were normalized to control. Transformed data then were used to calculate combinational index (CI) values using Compusyn software as described in https://www.combosyn.com/index.html. Data shown are results of three independent experiments.
# cancer patients = details: cited from earlier work
# SW1573 spheroids = test: 3D spheroid growth test; format: cell-based, human
# Method: Spheroids were generated using polyHEMA coated 96we11 round bottom plates. Briefly, the inner 60 wells of the plate were coated with 60 μl 5 mg/ml polyHEMA dissolved in 96% ethanol. Plates were dried at 60° C. in a plate shaker while shaking, then sterilized with UV. Cells were seeded at 3000 cells/well density at the inner 60 polyHEMA coated wells in 200 μl medium, while the outer wells were filled with DPBS (Lonza) to avoid evaporation. Plates were then centrifugated at 2000 RPM so that cells would be concentrated at the bottom of the well thus enhancing single spheroid formation. Within 24 hours the cells aggregated into spheroids and were treated by adding further 100 μl medium supplemented with the inhibitors. Each concentration group contained three spheroids. Each spheroid was pictured using a ToupCam XW 3MP microscope-camera on the first and sixth day of the treatment. Before imaging, medium was gently suspended so that unattached or dead cells would be removed from the surface of the spheroids. Images then were analysed using ImageJ software with a modified script of [1]. Briefly, the script measures the area of the 2D projections of the spheroids. Results were manually reviewed, then area values were used to calculate radius and volume of spheroids using the formula V=4/3×π×radius^3. Data are shown as results of three independent experiments.
# H358 xenografts = test: In vivo tumor growth of subcutaneous xenografts; parameters: species or system female SCID mice; details: AMG510 5 mg/kg i.p. and/or tipifarnib 40 mg/kg i.p.
# Method: (§1) H358 and SW1573 human lung adenocarcinoma cells (5×10^6 and 1×10^6, respectively) were subcutaneously injected in female SCID mice. Cells were injected in 200 μl DMEM:Matrigel mixture (ratio 1:1) based on preliminary experiments. When tumor reached approximately 100 mm^3 (H358 7 days, SW1573 26 days after injection), animals were randomized and treated intraperitoneally daily except for weekends. Drugs were dissolved in 60% DPBS, 34% PEG300, 5% DMSO and 1% Tween80. […] Controls received vehicle. Doses were determined based on previous literature, roughly using half of the used per os doses. The subcutaneous tumors were measured with a caliper and tumor volumes were calculated with the formula […] and expressed in mm^3. H358 experiment was terminated after 18 days and SW1573 after 25 days treatment. Tumors were measured upon harvest, then fixed with 4% PFA for histological analyses.
# (§2) Animals were the properties of the Department of Experimental Pharmacology, National Institute of Oncology, H-1122, Budapest, Hungary. All experiments were carried out in accordance with the Guidelines for Animal Experiments and were approved for the Department of Experimental Pharmacology in the National Institute of Oncology, Budapest, Hungary.
# SW1573 xenografts = test: In vivo tumor growth of subcutaneous xenografts; parameters: species or system female SCID mice; details: AMG510 25 mg/kg i.p. and/or tipifarnib 40 mg/kg i.p.
# Method: as §1, §2
# SW1573 [2] = test: siRNA knockdown experiment (SRB, IC50); format: cell-based, human; details: 6-day-long treatment
# Method: Cells were plated in 2500 and 7500 cells/well density (for non-targeting siRNA and HRAS siRNA treatment, respectively) on a 48we11 plate supplemented with pre-mixed Lipofectamine RNAIMAX Reagent (Thermo Fisher) and OptiMEM (Thermo Fisher) containing 2.5 pmol/well non-targeting or HRAS siRNA according to the manufacturer's instruction (reverse transfection protocol). […] On the 3rd day of the treatment, cells were supplemented with fresh pre-mixed 2.5 pmol/well siRNA diluted in Lipofectamine RNAiMAX Reagent and Optimem according to the manufacturer's instruction. […] OD values were normalized to control, and IC50 values were calculated from transformed data using GraphPad PRISM 5 software.
# [3] = (day 1 = 1), animal 1, in g (unit assumed)
# [4] = (day 1 = 1), animal 3, in g (unit assumed)
# [5] = (day 1 = 1), animal 4, in g (unit assumed)
# [6] = (day 1 = 1), animal 6, in g (unit assumed)
# [7] = (day 1 = 1), animal 7, in g (unit assumed)
# [8] = (day 1 = 1), group mean, in g (unit assumed)
substance,measurement,setting,value
sotorasib [AMG510],Sensitivity to treatment in 2D in vitro experiments,H358,highly sensitive
same,Sensitivity to treatment in 2D in vitro experiments,SW1573 [1],resistant
same,Clinical efficacy in monotherapy,cancer patients; LUAD patients,good efficacy
same,Clinical efficacy in monotherapy,cancer patients; colorectal cancer patients,relatively less effective
same,Clinical toxicity,cancer patients; tested clinically,without rate limiting toxicities
same,Drug sensitivity in 3D compared to 2D settings,SW1573 spheroids,higher sensitivity
same,Weights of the tumors at the end of the experiment,H358 xenografts; [3],0.053
same,Weights of the tumors at the end of the experiment,"H358 xenografts; (day 1 = 1), animal 2, in g (unit assumed)",0.559
same,Weights of the tumors at the end of the experiment,H358 xenografts; [4],0.038
same,Weights of the tumors at the end of the experiment,H358 xenografts; [5],0.157
same,Weights of the tumors at the end of the experiment,H358 xenografts; [6],0.254
same,Weights of the tumors at the end of the experiment,H358 xenografts; [7],0.029
same,"Weights of the tumors at the end of the experiment, MEAN",H358 xenografts; [8],0.1817
same,Inhibition of tumor growth (in words),H358 xenografts; daily except weekends,effectively inhibited tumors
same,Weights of the tumors at the end of the experiment,SW1573 xenografts; [3],0.1025
same,Weights of the tumors at the end of the experiment,SW1573 xenografts; [4],0.7238
same,Weights of the tumors at the end of the experiment,SW1573 xenografts; [5],0.2227
same,Weights of the tumors at the end of the experiment,"SW1573 xenografts; (day 1 = 1), animal 5, in g (unit assumed)",0.144
same,Weights of the tumors at the end of the experiment,SW1573 xenografts; [6],0.5804
same,Weights of the tumors at the end of the experiment,SW1573 xenografts; [7],0.4184
same,"Weights of the tumors at the end of the experiment, MEAN",SW1573 xenografts; [8],0.3653
same,Inhibition of tumor growth (in words),SW1573 xenografts; daily except weekends,effectively inhibited tumors
same,pIC50,SW1573 [2]; Cont (non-targeting) siRNA,7.00
same,pIC50,SW1573 [2]; HRAS siRNA,7.29
